Columns and labels:
KRAS G12D = KRAS G12D (Homo sapiens (Human), UniProt P01116, G12D); test: KRAS G12D LoEnz Biochemical Assay, BODIPY-GDP Exchange TR-FRET (SOS1-mediated nucleotide exchange); settings: read-out: KRas (G12D) GDP HTRF IC50
KRAS WT = KRAS WT (Homo sapiens (Human), UniProt P01116); test: KRAS WT Biochemical Assay, BODIPY-GDP Exchange TR-FRET (Example 502; 0.06 nM KRAS WT, 15 nM GDP, 300 nM SOS1, 120-minute incubation); settings: read-out: KRas HTRF IC50
Outline: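 Biotin-tagged recombinant KRAS WT (0.06 nM) preloaded with 15 nM GDP and Tb-streptavidin, 10 min RT, then exchange started with 300 nM SOS1 plus 300 nM BODIPY-GDP in HEPES pH 7.5 buffer with MgCl2. TR-FRET 520/490 ratio read after 120 min; normalized to DMSO and full-inhibition control; IC50 from 4-parameter fit.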

Chain of KRAS WT (P01116-2 other isoform, or with tags, fused parts or gaps): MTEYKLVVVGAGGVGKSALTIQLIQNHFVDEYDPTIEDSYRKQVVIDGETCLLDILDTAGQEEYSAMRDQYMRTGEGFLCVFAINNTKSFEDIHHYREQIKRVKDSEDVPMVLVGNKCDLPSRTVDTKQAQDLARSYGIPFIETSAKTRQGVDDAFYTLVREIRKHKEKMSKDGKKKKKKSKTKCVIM
Chain of KRAS G12D (P01116-2 other isoform, or with tags, fused parts or gaps G12D): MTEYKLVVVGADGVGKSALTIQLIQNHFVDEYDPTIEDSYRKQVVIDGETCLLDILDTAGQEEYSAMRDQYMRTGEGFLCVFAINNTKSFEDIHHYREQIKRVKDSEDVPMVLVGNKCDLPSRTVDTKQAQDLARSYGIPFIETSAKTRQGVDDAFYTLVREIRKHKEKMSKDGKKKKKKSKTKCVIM

Row | SMILES | IC50 (KRAS G12D) [nM] | IC50 (KRAS WT) [nM]
1 | Cc1c(F)c(N)cc(-c2nc3c4c(nc(OCC56C[C@H](F)CN5C[C@@H](F)C6)nc4c2F)N2C[C@H]4CC[C@H](N4)[C@H]2[C@H](C)O3)c1C(F)(F)F [Compound 139, 5-((5S,5aS,6S,9R)-12-(((2S,6S)-2,6-Difluorotetrahydro-1H-pyrrolizin-7a(5H)-yl)methoxy)-1-fluoro-5-methyl-5a,6,7,8,9,10-hexahydro-5H-4-oxa-3,10a,11,13,14-pentaaza-6,9-methanonaphtho[1,8-ab]heptalen-2-yl)-2-fluoro-3-methyl-4-(trifluoromethyl)aniline] | 2.41 | 780
2 | Cc1cc(N)c(F)c(-c2nc3c4c(nc(OC[C@@H]5CC[C@H]6COCCN65)nc4c2F)N2C[C@H]4CC[C@H](N4)[C@H]2[C@H](C)O3)c1Cl [Compound 101, 4-Chloro-2-fluoro-3-((5S,5aS,6S,9R)-1-fluoro-12-(((6S,8aS)-hexahydro-1H-pyrrolo[2,1-c][1,4]oxazin-6-yl)methoxy)-5-methyl-5a,6,7,8,9,10-hexahydro-5H-4-oxa-3,10a,11,13,14-pentaaza-6,9-methanonaphtho[1,8-ab]heptalen-2-yl)-5-methylaniline] | 3.19 | 906
3 | Cc1c(F)c(N)cc(-c2nc3c4c(nc(OCC5CCC6CN(C)C(=O)CN56)nc4c2F)N2C[C@H]4CC[C@H](N4)[C@H]2[C@H](C)O3)c1C(F)(F)F (mixture of isomers) [Compound 124, 6-((((5S,5aS,6S,9R)-2-(5-Amino-4-fluoro-3-methyl-2-(trifluoromethyl)phenyl)-1-fluoro-5-methyl-5a,6,7,8,9,10-hexahydro-5H-4-oxa-3,10a,11,13,14-pentaaza-6,9-methanonaphtho[1,8-ab]heptalen-12-yl)oxy)methyl)-2-methylhexahydropyrrolo[1,2-a]pyrazin-3(4H)-one] | 1.74 | 619
4 | Cc1c(F)c(N)cc(-c2nc3c4c(nc(OCCCN5C[C@H]6C[C@@H]5CO6)nc4c2F)N2C[C@H]4CC[C@H](N4)[C@H]2[C@H](C)O3)c1C(F)(F)F [Compound 163, 5-((5S,5aS,6S,9R)-12-(3-((1R,4R)-2-Oxa-5-azabicyclo[2.2.1]heptan-5-yl)propoxy)-1-fluoro-5-methyl-5a,6,7,8,9,10-hexahydro-5H-4-oxa-3,10a,11,13,14-pentaaza-6,9-methanonaphtho[1,8-ab]heptalen-2-yl)-2-fluoro-3-methyl-4-(trifluoromethyl)aniline] | 0.11 | 19.6
5 | COc1cc2ccccc2c(-c2nc3c4c(nc(OC[C@]56CCN5CC(F)(F)C6)nc4c2F)N2C[C@H]4CC[C@H](N4)[C@H]2[C@H](C)O3)n1 [Compound 89, (5S,5aS,6S,9R)-12-(((R)-3,3-Difluoro-1-azabicyclo[3.2.0]heptan-5-yl)methoxy)-1-fluoro-2-(3-methoxyisoquinolin-1-yl)-5-methyl-5a,6,7,8,9,10-hexahydro-5H-4-oxa-3,10a,11,13,14-pentaaza-6,9-methanonaphtho[1,8-ab]heptalene] | 912 | 1650
6 | C[C@@H]1Oc2nc(-c3[nH]c(=O)cc4ccccc34)c(F)c3nc(OC[C@@]45CCCN4C[C@H](F)C5)nc(c23)N2C[C@H]3CC[C@H](N3)[C@@H]12 [Compound 105, 1-((5S,5aS,6S,9R)-1-Fluoro-12-(((2R,7aS)-2-fluorotetrahydro-1H-pyrrolizin-7a(5H)-yl)methoxy)-5-methyl-5a,6,7,8,9,10-hexahydro-5H-4-oxa-3,10a,11,13,14-pentaaza-6,9-methanonaphtho[1,8-ab]heptalen-2-yl)isoquinolin-3(2H)-one] | 141 | 9700
7 | Cc1c(F)c(N)cc(-c2nc3c4c(nc(OCC5(CN6C[C@@H]7C[C@H]6CO7)CC5)nc4c2F)N2C[C@H]4CC[C@H](N4)[C@H]2[C@H](C)O3)c1C(F)(F)F [Compound 169, 5-((5S,5aS,6S,9R)-12-((1-(((1S,4S)-2-Oxa-5-azabicyclo[2.2.1]heptan-5-yl)methyl)cyclopropyl)methoxy)-1-fluoro-5-methyl-5a,6,7,8,9,10-hexahydro-5H-4-oxa-3,10a,11,13,14-pentaaza-6,9-methanonaphtho[1,8-ab]heptalene-2-yl)-2-fluoro-3-methyl-4-(trifluoromethyl)aniline] | 0.1 | 2.31
8 | Cc1c(F)c(N)cc(-c2nc3c4c(nc(OCC56COC(CN5C)C6)nc4c2F)N2C[C@H]4CC[C@H](N4)[C@H]2[C@H](C)O3)c1C(F)(F)F [Compound 132, 2-Fluoro-5-((5S,5aS,6S,9R)-1-fluoro-5-methyl-12-((5-methyl-2-oxa-5-azabicyclo[2.2.1]heptan-4-yl)methoxy)-5a,6,7,8,9,10-hexahydro-5H-4-oxa-3,10a,11,13,14-pentaaza-6,9-methanonaphtho[1,8-ab]heptalen-2-yl)-3-methyl-4-(trifluoromethyl)aniline] | 1.47 | 291
9 | Cc1c(F)c(N)cc(-c2nc3c4c(nc(OCC5(CN6CCOCC6)CC5)nc4c2F)N2C[C@H]4CC[C@H](N4)[C@H]2[C@H](C)O3)c1C(F)(F)F [Compound 118, 2-Fluoro-5-((5S,5aS,6S,9R)-1-fluoro-5-methyl-12-((1-(morpholinomethyl)cyclopropyl)methoxy)-5a,6,7,8,9,10-hexahydro-5H-4-oxa-3,10a,11,13,14-pentaaza-6,9-methanonaphtho[1,8-ab]heptalen-2-yl)-3-methyl-4-(trifluoromethyl)aniline] | 0.09 | 1.76
10 | Cc1c(F)c(N)cc(-c2nc3c4c(nc(OC[C@@]56CCCN5C[C@H](F)C6)nc4c2F)N2C[C@H]4CC[C@H](N4)[C@H]2[C@H](C)O3)c1CC(F)F [Compound 75, 4-(2,2-Difluoroethyl)-2-fluoro-5-((5S,5aS,6S,9R)-1-fluoro-12-(((2R,7aS)-2-fluorotetrahydro-1H-pyrrolizin-7a(5H)-yl)methoxy)-5-methyl-5a,6,7,8,9,10-hexahydro-5H-4-oxa-3,10a,11,13,14-pentaaza-6,9-methanonaphtho[1,8-ab]heptalen-2-yl)-3-methylaniline] | 0.13 | 11.8
11 | Cc1c(F)c(N)cc(-c2nc3c4c(nc(OCC5(CN6CC(F)C6)CC5)nc4c2F)N2C[C@H]4CC[C@H](N4)[C@H]2[C@H](C)O3)c1C(F)(F)F [Compound 173, 2-Fluoro-5-((5S,5aS,6S,9R)-1-fluoro-12-((1-((3-fluoroazetidin-1-yl)methyl)cyclopropyl)methoxy)-5-methyl-5a,6,7,8,9,10-hexahydro-5H-4-oxa-3,10a,11,13,14-pentaaza-6,9-methanonaphtho[1,8-ab]heptalene-2-yl)-3-methyl-4-(trifluoromethyl)aniline] | 0.08 | 5.95
12 | Cc1c(F)c(N)cc(-c2nc3c4c(nc(OC[C@@H]5CC[C@@H]6C[C@@H](C(=O)N(C)C)CCN65)nc4c2F)N2C[C@H]4CC[C@H](N4)[C@H]2[C@H](C)O3)c1C(F)(F)F (single isomer, unassigned) [133 (isomer 1)] | 0.12 | 13.6
13 | Cc1c(F)c(N)cc(-c2nc3c4c(nc(OC[C@H]5C[C@@H]6COCCN65)nc4c2F)N2C[C@H]4CC[C@H](N4)[C@H]2[C@H](C)O3)c1C(F)(F)F (mixture of isomers) [159 (mixture), 5-((5S,5aS,6S,9R)-12-((4-Oxa-1-azabicyclo[4.2.0]octan-8-yl)methoxy)-1-fluoro-5-methyl-5a,6,7,8,9,10-hexahydro-5H-4-oxa-3,10a,11,13,14-pentaaza-6,9-methanonaphtho[1,8-ab]heptalen-2-yl)-2-fluoro-3-methyl-4-(trifluoromethyl)aniline] | 0.23 | 45.2
14 | Cc1cc(N)c(F)c(-c2nc3c4c(nc(OC[C@@H]5CC[C@H]6COCCN65)nc4c2F)N2C[C@H]4CC[C@H](N4)[C@H]2[C@H](C)O3)c1C=C(F)F [Compound 99, 4-(2,2-Difluorovinyl)-2-fluoro-3-((5S,5aS,6S,9R)-1-fluoro-12-(((6S,8aS)-hexahydro-1H-pyrrolo[2,1-c][1,4]oxazin-6-yl)methoxy)-5-methyl-5a,6,7,8,9,10-hexahydro-5H-4-oxa-3,10a,11,13,14-pentaaza-6,9-methanonaphtho[1,8-ab]heptalen-2-yl)-5-methylaniline] | 2.09 | 506
15 | Cc1c(F)c(N)cc(-c2nc3c4c(nc(OC[C@H]5[C@@H](O)CCN5C)nc4c2F)N2C[C@H]4CC[C@H](N4)[C@H]2[C@H](C)O3)c1C(F)(F)F [Compound 162, (2S,3S)-2-((((5S,5aS,6S,9R)-2-(5-Amino-4-fluoro-3-methyl-2-(trifluoromethyl)phenyl)-1-fluoro-5-methyl-5a,6,7,8,9,10-hexahydro-5H-4-oxa-3,10a,11,13,14-pentaaza-6,9-methanonaphtho[1,8-ab]heptalen-12-yl)oxy)methyl)-1-methylpyrrolidin-3-ol] | 0.13 | 41.3
16 | Cc1c(F)c(N)cc(-c2nc3c4c(nc(OC[C@@]56CCCN5C/C(=C\F)C6)nc4c2F)N2C[C@H]4CC[C@H](N4)[C@H]2[C@H](C)O3)c1C(F)(F)F [Compound 64, 2-fluoro-5-((5S,5aS,6S,9R)-1-fluoro-12-(((S,Z)-2-(fluoromethylene)tetrahydro-1H-pyrrolizin-7a(5H)-yl)methoxy)-5-methyl-5a,6,7,8,9,10-hexahydro-5H-4-oxa-3,10a,11,13,14-pentaaza-6,9-methanonaphtho[1,8-ab]heptalen-2-yl)-3-methyl-4-(trifluoromethyl)aniline] | 0.12 | 0.738
17 | Cc1c(F)c(N)cc(-c2nc3c4c(nc(OC[C@]5(CCF)CCCN5C)nc4c2F)N2C[C@H]4CC[C@H](N4)[C@H]2[C@H](C)O3)c1C(F)(F)F (single isomer, unassigned) [127 (isomer 2)] | 0.19 | 37.7

Reference: patent publication US20240025919A1, “AZA-TETRACYCLIC OXAZEPINE COMPOUNDS AND USES THEREOF” (Genentech, Inc., priority 2022, published 2024)
